Experimental data as given in article PMC6944758 (The FEBS journal, 2019).

Experiments:
ALDH7A1 [1] = biological target: T1, ALDH7A1 (Homo sapiens, UniProt P49419); test: X-ray crystal structure, co-crystallization; type: binding; details: 175 mM PA, pH 7.2, 1.88 Å; aldehyde substrate site
T1 sequence (P49419 1-511 isoform P49419-2): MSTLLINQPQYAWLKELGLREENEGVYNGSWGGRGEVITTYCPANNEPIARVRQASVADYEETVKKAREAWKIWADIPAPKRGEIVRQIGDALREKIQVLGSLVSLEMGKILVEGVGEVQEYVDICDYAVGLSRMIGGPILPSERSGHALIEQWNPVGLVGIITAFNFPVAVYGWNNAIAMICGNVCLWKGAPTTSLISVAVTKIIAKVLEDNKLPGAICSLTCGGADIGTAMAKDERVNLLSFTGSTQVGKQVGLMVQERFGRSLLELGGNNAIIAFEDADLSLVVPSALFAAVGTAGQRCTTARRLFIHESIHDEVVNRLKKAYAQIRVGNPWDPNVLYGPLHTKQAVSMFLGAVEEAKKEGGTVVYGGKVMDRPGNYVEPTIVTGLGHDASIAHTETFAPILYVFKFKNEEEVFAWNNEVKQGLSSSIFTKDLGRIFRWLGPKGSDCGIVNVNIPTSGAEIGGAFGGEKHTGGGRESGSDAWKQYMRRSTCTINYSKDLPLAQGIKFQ

ALDH7A1 [2] = biological target: T1, ALDH7A1; test: X-ray crystal structure, co-crystallization; type: binding; details: 15 mM NAD+, pH 6.8, 1.85 Å; Rossmann fold cofactor site

O=C(O)[C@@H]1CCCCN1 [PA, L-pipecolic acid]
X-ray crystal structure, co-crystallization (ALDH7A1 [1]): we obtained a structure of W175A complexed with the P6C analog L-pipecolic acid (PA)

NC(=O)c1ccc[n+]([C@@H]2O[C@H](COP(=O)(O)OP(=O)(O)OC[C@H]3O[C@@H](n4cnc5c(N)ncnc54)[C@H](O)[C@@H]3O)[C@@H](O)[C@H]2O)c1 [NAD^+]
X-ray crystal structure, co-crystallization (ALDH7A1 [2]): The structures of W175G and W175A complexed with NAD^+ were determined
